Experimental data: publication PMC3646166, “Comparison of Aqueous and 1-Octanol Solubility as well as Liquid–Liquid Distribution of Acyclovir Derivatives and Their Complexes with Hydroxypropyl-β-Cyclodextrin” (Journal of Solution Chemistry, 2013)
In brackets after ≈: the same amount, converted by molar mass. Like-named read-outs stand apart in the source and are kept apart here.

Legend:
[1] = Extraction experiments, 1-octanol-water partition coefficient; assay type: physicochemical; settings: 25 °C, read-out: Partition coefficient 1-octanol–water, P oc/w (converted)
Method: The equipment described above was also used for the determination of the 1-octanol-water partition coefficients. […] The partition coefficient was evaluated as:1 Poc/w=Coc/Cw where C oc and C w are the molar concentrations of the solute in the 1-octanol and water phases, respectively. The correctness of the P oc/w value of each compound was verified by checking the mass balance of the starting amount of the substance and the total amount of the substance partitioned between the two phases.

[2] = Solubility in water or 1-octanol (saturated solutions, UV-Vis); assay type: physicochemical; settings: for solubility: thermodynamic from solid, water
Method: The sample of substance examined (10 mg or 80 mg for 6-Me-TACV) was placed in a glass ampoule and double-distilled, deionized water (Millipore, Elix 5 purifier), or pure anhydrous 1-octanol (Sigma 99 %) was added. To attain thermodynamic equilibrium, the solute and the solvent were mixed continuously for a minimum of 4 days at a speed of 25 rpm. After the experiment was completed, the sample was centrifuged at 40,000 rpm for 40 min at 25 ± 0.1 °C, the supernatant liquid was collected, diluted, and its concentration determined with a UV–Vis (Varian Carry IE) spectrophotometer. The experiments were repeated at least three times for each solubility.

[3] = Solubility in buffered cyclodextrin solutions (excess method of Higuchi and Connors); assay type: physicochemical; parameters: Stability constant K s of HP-β-CD complex: unit not given here
Method: Solubilities of the studied compounds was ensured according to the excess method of Higuchi and Connors. […] An excess amount of compounds 4-9 and 11-12 was added to 1.5 mL of aqueous phosphate buffer (concentration of buffer was equal 0.067 mol·dm^-3) solutions, (pH = 5.5 or 7.0) containing various concentration of HP-β-CD. The cyclodextrin concentration changed in the range of 10^-3 to 2 × 10^-2 mol·dm^-3. The suspensions were shaken in screw-capped plastic vials in a water bath thermostat with the volume of 60 dm^3 (home made apparatus by IChF PAN) at 25 and 37 °C. After 7 days equilibrium was reached and then the suspensions were centrifuged and the absorbance of the studied compounds was measured by UV-Vis spectrophotometry using a Shimadzu UV 2401 PC Spectrometer equipped with a thermostatically controlled cell compartment. During the measurement of absorbance, a buffered-solution of HP-β-CD, of the same concentration as in the studied solution, was always put as the reference. The average values of at least three independent determinations of the absorbance were used for calculation of the concentrations of the particular acyclovir derivatives. […] The main reason for the low solubility of tricyclic acyclovir derivatives with aromatic groups in water is the high hydrophobicity of these substituents. Use of cyclodextrins, which can include aromatic groups into their cavity, may enhance the aqueous solubility of such compounds. For this purpose we used several cyclodextrins and hydroxypropyl-β-cyclodextrin was chosen as being more efficient for complexating the tricyclic acyclovir derivatives. The investigations were performed, for chosen compounds, in various cyclodextrin HP-β-CD, buffered solutions (pH = 5.5 and 7.0) at 25 and 37 °C. […] Values of the correlation parameters a and b for tricyclic acyclovir derivatives complexed by cyclodextrin are presented in Table 3. […] The stability constants of the inclusion complexes between HP-β-CD and acyclovir derivatives have been calculated according to the Higuchi-Connors method using:3 K=b/C0(1-b) where C 0 is the solubility of the sample in solutions without cyclodextrin, obtained by determination of saturated solution concentration of acyclovir derivative solutions. […] These two values can differ, but in our study are very close to each other.

[4] = parameters: method as in earlier work; settings: human body ref 1; cited from earlier work
[5] = 25 °C (Table 1), read-out: Solubility in water, C w
[6] = water saturated with 1-octanol, 25 °C, read-out: Solubility in water saturated with 1-octanol, C woc
[7] = 35 °C, read-out: Aqueous solubility, C w
[8] = 45 °C, read-out: Aqueous solubility, C w
[9] = buffered HP-β-CD solutions, pH = 5.5, 25 °C
[10] = buffered HP-β-CD solutions, pH = 5.5, 37 °C
[11] = buffered HP-β-CD solutions, pH = 7.0, 25 °C
[12] = buffered HP-β-CD solutions, pH = 7.0, 37 °C

Row | SMILES | logP at 2 days [1] | solubility [2, 5] [µM] | solubility [2, 6] [µM] | solubility [2, 7] [µM] | solubility [2, 8] [µM] | Correlation parameter a (Eq. 2, Cs = a + b·CCD) [3, 9] | Correlation parameter b (Eq. 2, Cs = a + b·CCD) [3, 9] | Correlation parameter a (Eq. 2, Cs = a + b·CCD) [3, 10] | Correlation parameter b (Eq. 2, Cs = a + b·CCD) [3, 10] | Correlation parameter a (Eq. 2, Cs = a + b·CCD) [3, 11] | Correlation parameter b (Eq. 2, Cs = a + b·CCD) [3, 11] | Correlation parameter a (Eq. 2, Cs = a + b·CCD) [3, 12] | Correlation parameter b (Eq. 2, Cs = a + b·CCD) [3, 12] | Stability constant K s of HP-β-CD complex ([3]; pH = 5.5, 25 °C) | Stability constant K s of HP-β-CD complex ([3]; pH = 5.5, 37 °C) | Stability constant K s of HP-β-CD complex ([3]; pH = 7, 25 °C) | Stability constant K s of HP-β-CD complex ([3]; pH = 7, 37 °C) | Solubility ratio in 1-octanol and water, C oc/C w ([2]; 25 °C) | Solubility ratio in 1-octanol saturated with water and water saturated with 1-octanol, C ocw/C woc ([2]; 25 °C) | further results
1 | Nc1nc2c(ncn2COCCO)c(=O)[nH]1 [Compound 1, 9-[(2-hydroxyethoxy)methyl] guanine, reference compound] | -1.44 | 8070 (≈ 1820 µg/mL) | 7440 (≈ 1680 µg/mL) | 16200 (≈ 3650 µg/mL) | 19700 (≈ 4440 µg/mL) |  |  |  |  |  |  |  |  |  |  |  |  |  |  | 
2 | CC(C)[C@H](N)C(=O)OCCOCn1cnc2c(=O)[nH]c(N)nc21 [valacyclovir] |  |  |  |  |  |  |  |  |  |  |  |  |  |  |  |  |  |  |  | Absorption relative to application of acyclovir [4]: four times higher
3 | Nc1nc(O)c2ncn(COC(CO)CO)c2n1 [Compound 3, 9-[(1,3-dihydroxy-2-propoxy)methyl]guanine, reference compound] | -1.77 | 12300 (≈ 3140 µg/mL) | 11000 (≈ 2810 µg/mL) | 21800 (≈ 5560 µg/mL) | 22900 (≈ 5840 µg/mL) |  |  |  |  |  |  |  |  |  |  |  |  |  |  | 
4 | O=c1c2ncn(COCCO)c2nc2[nH]ccn12 [Compound 4, 3,9-dihydro-3-[(2-hydroxyethoxy)methyl]-9-oxo-5H-imidazol[1,2-a]purine] | -0.86 | 3070 (≈ 765 µg/mL) | 2720 (≈ 678 µg/mL) | 5910 (≈ 1470 µg/mL) | 6750 (≈ 1680 µg/mL) | 2.64 × 10^−3 | 1.98 × 10^−2 | 5.15 × 10^−3 | 2.72 × 10^−2 | 2.48 × 10^−3 | 2.05 × 10^−2 | 4.79 × 10^−3 | 2.56 × 10^−2 | 8.0 (±1) dm·mol^−1 | 6.0 (±1) dm·mol^−1 | 8.0 (±1) dm·mol^−1 | 6.0 (±1) dm·mol^−1 | 0.046 | 0.157 | 
5 | Nc1nc2c(nc(Br)n2COCCO)c(=O)[nH]1 [Compound 2, 8-bromo-9-[(2-hydroxyethoxy)methyl] guanine] | -0.264 | 1030 (≈ 313 µg/mL) | 859 (≈ 261 µg/mL) | 1900 (≈ 578 µg/mL) | 2490 (≈ 757 µg/mL) |  |  |  |  |  |  |  |  |  |  |  |  | 0.430 | 0.802 | 

More lines, main results first:

Row | logP at 2 days [1] | solubility [2, 5] [µM] | solubility [2, 6] [µM] | solubility [2, 7] [µM] | solubility [2, 8] [µM] | Correlation parameter a (Eq. 2, Cs = a + b·CCD) [3, 9] | Correlation parameter b (Eq. 2, Cs = a + b·CCD) [3, 9] | Correlation parameter a (Eq. 2, Cs = a + b·CCD) [3, 10] | Correlation parameter b (Eq. 2, Cs = a + b·CCD) [3, 10] | Correlation parameter a (Eq. 2, Cs = a + b·CCD) [3, 11] | Correlation parameter b (Eq. 2, Cs = a + b·CCD) [3, 11] | Correlation parameter a (Eq. 2, Cs = a + b·CCD) [3, 12] | Correlation parameter b (Eq. 2, Cs = a + b·CCD) [3, 12] | Stability constant K s of HP-β-CD complex ([3]; pH = 5.5, 25 °C) | Stability constant K s of HP-β-CD complex ([3]; pH = 5.5, 37 °C) | Stability constant K s of HP-β-CD complex ([3]; pH = 7, 25 °C) | Stability constant K s of HP-β-CD complex ([3]; pH = 7, 37 °C) | Solubility ratio in 1-octanol and water, C oc/C w ([2]; 25 °C) | Solubility ratio in 1-octanol saturated with water and water saturated with 1-octanol, C ocw/C woc ([2]; 25 °C) | SMILES | further results
6 | 0.545 | 238 (≈ 77.4 µg/mL) | 334 (≈ 109 µg/mL) | 517 (≈ 168 µg/mL) | 728 (≈ 237 µg/mL) | 1.86 × 10^−4 | 2.22 × 10^−2 | 3.27 × 10^−4 | 3.57 × 10^−2 | 2.50 × 10^−4 | 2.60 × 10^−2 | 3.36 × 10^−4 | 3.60 × 10^−2 | 122 (±2) dm·mol^−1 | 113 (±10) | 107 (±8) | 105 (±6) dm·mol^−1 | 7.48 | 4.76 | O=c1c2ncn(COCCO)c2nc2[nH]c(-c3ccccc3)cn12 [Compound 8] | 
7 | 0.616 | 3080 (≈ 940 µg/mL) | 3780 (≈ 1150 µg/mL) | 20400 (≈ 6230 µg/mL) | 31900 (≈ 9740 µg/mL) |  |  |  |  |  |  |  |  |  |  |  |  | 5.16 | 2.62 | CC(C)(C)c1cn2c(=O)c3ncn(COCCO)c3nc2[nH]1 [Compound 7] | Type of solubility diagram (solubility versus cyclodextrin concentration) ([3]; buffered HP-β-CD solutions): An type of solubility diagram
8 | -0.108 | 2110 (≈ 722 µg/mL) | 1050 (≈ 360 µg/mL) | 2360 (≈ 807 µg/mL) | 2590 (≈ 886 µg/mL) | 1.18 × 10^−3 | 2.66 × 10^−2 | 2.35 × 10^−3 | 5.94 × 10^−2 | 1.03 × 10^−3 | 2.57 × 10^−2 | 2.01 × 10^−3 | 3.23 × 10^−2 | 27 (±2) dm·mol^−1 | 26 (±2) dm·mol^−1 | 26 (±2) dm·mol^−1 | 17 (±1) dm·mol^−1 | 0.108 | 0.816 | Cc1cn2c(=O)c3nc(Br)n(COCCO)c3nc2[nH]1 [Compound 6] | 
9 | 0.491 | 229 (≈ 91.9 µg/mL) | 583 (≈ 234 µg/mL) | 554 (≈ 222 µg/mL) | 658 (≈ 264 µg/mL) | 2.18 × 10^−4 | 2.12 × 10^−2 | 5.03 × 10^−4 | 2.98 × 10^−2 | 2.65 × 10^−4 | 2.84 × 10^−2 | 5.95 × 10^−4 |  | 100 (±8) | 61 (±5) | 110 (±6) dm·mol^−1 | 68 (±4) | 8.90 | 3.10 | O=c1c2ncn(COCCO)c2nc2[nH]c(-c3ccc(-c4ccccc4)cc3)cn12 [Compound 9] | 
10 | 0.549 | 166 (≈ 62.3 µg/mL) | 191 (≈ 71.7 µg/mL) | 256 (≈ 96.1 µg/mL) | 265 (≈ 99.5 µg/mL) | 2.99 × 10^−5 | 0.88 × 10^−2 | 3.37 × 10^−5 | 0.93 × 10^−2 | 3.05 × 10^−5 | 0.94 × 10^−2 | 4.29 × 10^−5 | 1.29 × 10^−2 | 297 (±7) | 279 (±9) | 311 (±9) | 305 (±9) | 4.37 | 3.58 | O=c1c2ncn(COCCO)c2nc2[nH]c(-c3ccc4ccccc4c3)cn12 [Compound 12] | 
11 | 0.549 | 364 (≈ 147 µg/mL) | 412 (≈ 167 µg/mL) | 898 (≈ 363 µg/mL) | 1280 (≈ 517 µg/mL) |  |  |  |  |  |  |  |  |  |  |  |  | 2.14 | 1.65 | O=c1c2ncn(COCCO)c2nc2[nH]c(-c3ccc(Br)cc3)cn12 [Compound 10] | 
12 | -0.688 | 18700 (≈ 4920 µg/mL) | 13100 (≈ 3450 µg/mL) | 26600 (≈ 7000 µg/mL) | 32400 (≈ 8530 µg/mL) |  |  |  |  |  |  |  |  |  |  |  |  | 0.173 | 0.274 | Cc1cn2c(=O)c3ncn(COCCO)c3nc2[nH]1 [Compound 5] | 
